Calls of active or inactive are those of the source. The rule behind the calls is not given here.
Tests used:
[1] = target: Bromodomain adjacent to zinc finger domain protein 2A (Homo sapiens, UniProt Q9UIF9); assay: Binding affinity to human partial length BAZ2A (M1792 to L1905 residues) expressed in bacterial expression system by BROMOscan assay
[2] = Lipophilicity, logD of the compound at pH 7.4 by chromatographic method; format: physicochemical; settings: buffer
Blood = assay: Inhibition of LPS-induced MCP1 production in human whole blood preincubated for 30 mins followed by LPS addition and measured after overnight incubation by mesoscale assay; format: functional, tissue-based
[3] = target: Bromodomain-containing protein 2 (Homo sapiens, UniProt P25440); assay: Binding affinity to human partial length BRD2 bromodomain 2 isoform 1 (E348 to D455 residues) expressed in bacterial expression system by BROMOscan assay
Chain of Bromodomain-containing protein 2 (P25440 whole entry, the tested form may be a part, canonical isoform): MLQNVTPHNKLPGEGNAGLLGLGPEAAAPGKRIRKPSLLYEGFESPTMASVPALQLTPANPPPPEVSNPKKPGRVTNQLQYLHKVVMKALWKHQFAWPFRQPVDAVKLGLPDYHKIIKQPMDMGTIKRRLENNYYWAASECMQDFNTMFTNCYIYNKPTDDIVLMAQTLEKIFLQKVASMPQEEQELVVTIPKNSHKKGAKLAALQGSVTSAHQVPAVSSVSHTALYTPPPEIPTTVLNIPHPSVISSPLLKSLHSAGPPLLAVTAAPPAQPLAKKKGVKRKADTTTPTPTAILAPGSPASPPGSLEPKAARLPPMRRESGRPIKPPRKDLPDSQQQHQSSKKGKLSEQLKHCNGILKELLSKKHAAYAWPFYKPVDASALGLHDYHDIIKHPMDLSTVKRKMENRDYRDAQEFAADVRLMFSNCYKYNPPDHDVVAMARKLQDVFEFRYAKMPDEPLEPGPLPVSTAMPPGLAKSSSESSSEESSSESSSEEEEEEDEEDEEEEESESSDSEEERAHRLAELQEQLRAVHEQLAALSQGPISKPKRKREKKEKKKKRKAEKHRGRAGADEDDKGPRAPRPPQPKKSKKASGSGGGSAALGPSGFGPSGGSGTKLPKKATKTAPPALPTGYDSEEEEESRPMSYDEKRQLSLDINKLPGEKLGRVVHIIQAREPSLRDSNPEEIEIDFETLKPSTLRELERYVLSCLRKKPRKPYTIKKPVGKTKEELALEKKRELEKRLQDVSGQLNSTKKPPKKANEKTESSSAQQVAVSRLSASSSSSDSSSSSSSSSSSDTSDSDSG

[4] = target: T1, Bromodomain testis-specific protein (Homo sapiens, UniProt Q58F21); assay: Binding affinity to human partial length BRDT bromodomain 2 (K250 to E382 residues) expressed in bacterial expression system by bromoscan assay
[5] = target: T2, ATPase family AAA domain-containing protein 2 (Homo sapiens, UniProt Q6PL18); assay: Binding affinity to human partial length ATAD2A (Q981 to R1108 residues) expressed in bacterial expression system by BROMOscan assay
T2 sequence (Q6PL18 whole entry): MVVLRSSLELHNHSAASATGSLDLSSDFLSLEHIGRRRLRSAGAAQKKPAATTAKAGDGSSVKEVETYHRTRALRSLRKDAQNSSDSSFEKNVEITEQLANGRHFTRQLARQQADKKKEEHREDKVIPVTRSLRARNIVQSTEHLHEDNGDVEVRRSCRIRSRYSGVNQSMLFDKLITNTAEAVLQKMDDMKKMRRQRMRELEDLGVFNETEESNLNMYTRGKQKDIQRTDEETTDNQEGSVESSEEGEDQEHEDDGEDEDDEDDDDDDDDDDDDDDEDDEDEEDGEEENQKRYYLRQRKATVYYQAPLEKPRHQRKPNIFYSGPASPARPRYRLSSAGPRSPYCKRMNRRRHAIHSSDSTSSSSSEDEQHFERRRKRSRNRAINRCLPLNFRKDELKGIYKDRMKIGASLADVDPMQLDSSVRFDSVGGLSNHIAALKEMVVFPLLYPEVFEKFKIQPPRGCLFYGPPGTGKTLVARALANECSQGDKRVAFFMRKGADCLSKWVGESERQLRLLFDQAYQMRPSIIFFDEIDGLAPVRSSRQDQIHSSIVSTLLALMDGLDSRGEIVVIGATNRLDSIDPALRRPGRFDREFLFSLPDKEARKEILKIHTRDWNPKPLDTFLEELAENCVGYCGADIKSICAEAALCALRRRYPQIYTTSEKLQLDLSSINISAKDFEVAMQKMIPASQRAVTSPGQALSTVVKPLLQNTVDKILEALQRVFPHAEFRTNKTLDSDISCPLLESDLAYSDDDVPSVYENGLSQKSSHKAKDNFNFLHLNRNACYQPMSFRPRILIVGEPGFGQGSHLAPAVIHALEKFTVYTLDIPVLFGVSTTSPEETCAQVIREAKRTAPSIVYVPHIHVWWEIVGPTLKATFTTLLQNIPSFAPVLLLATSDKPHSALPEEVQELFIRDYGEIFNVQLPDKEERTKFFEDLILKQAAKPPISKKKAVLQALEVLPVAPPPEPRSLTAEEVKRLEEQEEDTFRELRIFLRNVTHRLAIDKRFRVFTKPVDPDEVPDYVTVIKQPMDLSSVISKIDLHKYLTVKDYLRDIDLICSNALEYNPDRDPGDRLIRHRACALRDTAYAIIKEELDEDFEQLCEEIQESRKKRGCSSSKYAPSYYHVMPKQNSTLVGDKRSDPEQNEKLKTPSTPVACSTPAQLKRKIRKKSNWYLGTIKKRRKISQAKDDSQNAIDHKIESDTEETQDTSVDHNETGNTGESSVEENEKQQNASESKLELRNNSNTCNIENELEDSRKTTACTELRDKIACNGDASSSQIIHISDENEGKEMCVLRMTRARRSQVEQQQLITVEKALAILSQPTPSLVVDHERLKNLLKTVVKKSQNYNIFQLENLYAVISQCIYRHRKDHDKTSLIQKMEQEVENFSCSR

[6] = target: Bromodomain-containing protein 3 (Homo sapiens, UniProt Q15059); assay: Binding affinity to full length BRD3 BD1 in human HuT78 cell lysates incubated for 45 mins by liquid chromatography-mass spectrometry based chemoproteomic binding assay; format: subcellular
[7] = target: T1, Bromodomain testis-specific protein; assay: Binding affinity to full length BRDT BD1 in human HuT78 cell lysates incubated for 45 mins by liquid chromatography-mass spectrometry based chemoproteomic binding assay; format: subcellular
[8] = target: T3, Transcription initiation factor TFIID subunit 1 (Homo sapiens, UniProt P21675); assay: Binding affinity to full length TAF1 in human HuT78 cell lysates incubated for 45 mins by liquid chromatography-mass spectrometry based chemoproteomic binding assay; format: subcellular
T3 sequence (P21675 whole entry): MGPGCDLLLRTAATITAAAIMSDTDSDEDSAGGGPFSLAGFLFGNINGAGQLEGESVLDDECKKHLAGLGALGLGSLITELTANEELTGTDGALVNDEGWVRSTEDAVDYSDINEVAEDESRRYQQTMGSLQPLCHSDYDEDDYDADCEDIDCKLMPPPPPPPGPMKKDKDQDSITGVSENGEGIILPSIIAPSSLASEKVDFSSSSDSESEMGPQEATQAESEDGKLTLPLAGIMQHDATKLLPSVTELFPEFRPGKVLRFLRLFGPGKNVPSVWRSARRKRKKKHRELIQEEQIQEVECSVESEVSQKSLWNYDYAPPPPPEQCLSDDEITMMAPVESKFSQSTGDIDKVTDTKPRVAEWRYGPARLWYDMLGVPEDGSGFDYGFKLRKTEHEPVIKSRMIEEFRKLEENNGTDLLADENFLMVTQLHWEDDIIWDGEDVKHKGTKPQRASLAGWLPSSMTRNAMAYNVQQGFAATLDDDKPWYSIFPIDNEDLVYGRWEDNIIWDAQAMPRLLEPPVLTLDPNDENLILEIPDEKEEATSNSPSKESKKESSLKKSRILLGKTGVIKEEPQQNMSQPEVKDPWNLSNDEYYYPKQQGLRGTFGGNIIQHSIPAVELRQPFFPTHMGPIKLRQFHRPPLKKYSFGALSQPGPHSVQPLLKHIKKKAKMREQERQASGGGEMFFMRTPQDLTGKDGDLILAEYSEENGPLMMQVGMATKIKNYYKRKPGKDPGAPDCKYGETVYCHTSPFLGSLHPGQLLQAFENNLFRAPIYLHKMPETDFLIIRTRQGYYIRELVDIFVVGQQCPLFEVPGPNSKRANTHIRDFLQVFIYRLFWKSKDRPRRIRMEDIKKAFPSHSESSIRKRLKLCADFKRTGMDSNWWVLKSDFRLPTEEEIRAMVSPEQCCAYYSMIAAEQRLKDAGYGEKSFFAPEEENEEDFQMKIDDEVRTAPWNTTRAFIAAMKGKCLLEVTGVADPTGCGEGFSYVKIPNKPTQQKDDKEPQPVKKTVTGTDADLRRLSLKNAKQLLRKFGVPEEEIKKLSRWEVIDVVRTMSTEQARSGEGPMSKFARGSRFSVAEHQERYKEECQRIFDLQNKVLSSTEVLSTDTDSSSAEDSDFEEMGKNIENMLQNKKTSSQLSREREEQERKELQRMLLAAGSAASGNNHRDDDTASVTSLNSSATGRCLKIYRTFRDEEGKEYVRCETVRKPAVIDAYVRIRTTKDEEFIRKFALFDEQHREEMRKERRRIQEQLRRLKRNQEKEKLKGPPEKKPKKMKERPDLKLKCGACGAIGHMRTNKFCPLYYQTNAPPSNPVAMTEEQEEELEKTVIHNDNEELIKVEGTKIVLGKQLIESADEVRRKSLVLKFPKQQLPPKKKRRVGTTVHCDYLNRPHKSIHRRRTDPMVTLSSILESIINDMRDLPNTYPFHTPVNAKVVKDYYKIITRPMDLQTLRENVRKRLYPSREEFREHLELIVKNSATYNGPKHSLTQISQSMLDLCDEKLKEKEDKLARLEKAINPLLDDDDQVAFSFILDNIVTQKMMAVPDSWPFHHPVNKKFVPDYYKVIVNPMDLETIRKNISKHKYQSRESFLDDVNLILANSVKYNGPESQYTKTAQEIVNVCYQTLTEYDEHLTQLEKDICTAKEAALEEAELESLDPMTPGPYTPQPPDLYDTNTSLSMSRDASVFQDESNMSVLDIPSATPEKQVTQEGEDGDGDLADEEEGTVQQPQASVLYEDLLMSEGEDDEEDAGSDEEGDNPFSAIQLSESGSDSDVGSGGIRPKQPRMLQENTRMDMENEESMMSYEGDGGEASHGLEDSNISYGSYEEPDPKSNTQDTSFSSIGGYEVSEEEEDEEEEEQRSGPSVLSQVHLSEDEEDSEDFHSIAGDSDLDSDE

[9] = target: T3, Transcription initiation factor TFIID subunit 1; assay: Displacement of AlexaFluor 488-labelled BD-AF488 from TAF1 BD2 (unknown origin) incubated for 15 mins by TR-FRET assay
[10] = Intrinsic clearance in rat hepatocytes at 0.5 uM measured up to 60 mins by LC-MS/MS analysis; format: ADME, cell-based, Hepatocyte; settings: 1 h
[11] = Intrinsic clearance in mouse hepatocytes at 0.5 uM by LC-MS/MS analysis; format: ADME, cell-based, Hepatocyte
B cell [12] = assay: Downregulation of IL-17A secretion in human B cells cocultured with human PBMC at 0.37 to 10 uM preincubated for 1 hr followed by anti-IgM and TCR stimulation and measured after 84 hrs by ELISA; format: functional, cell-based; settings: dose microM 0.37-10, time 1.0 hrs
B cell [13] = assay: Downregulation of IL-17F secretion in human B cells cocultured with human PBMC at 0.37 to 10 uM preincubated for 1 hr followed by anti-IgM and TCR stimulation and measured after 84 hrs by ELISA; format: functional, cell-based; settings: dose microM 0.37-10, time 1.0 hrs
B cell [14] = assay: Downregulation of IL-6 secretion in human B cells cocultured with human PBMC at 0.37 to 10 uM preincubated for 1 hr followed by anti-IgM and TCR stimulation and measured after 84 hrs by ELISA; format: functional, cell-based; settings: dose microM 0.37-10, time 1.0 hrs
B cell [15] = assay: Downregulation of Ig-G secretion in human B cells cocultured with human PBMC at 0.37 to 10 uM preincubated for 1 hr followed by anti-IgM and TCR stimulation and measured after 84 hrs by ELISA; format: functional, cell-based; settings: dose microM 0.37-10, time 1.0 hrs

Chain of Bromodomain adjacent to zinc finger domain protein 2A (Q9UIF9 whole entry, the tested form may be a part): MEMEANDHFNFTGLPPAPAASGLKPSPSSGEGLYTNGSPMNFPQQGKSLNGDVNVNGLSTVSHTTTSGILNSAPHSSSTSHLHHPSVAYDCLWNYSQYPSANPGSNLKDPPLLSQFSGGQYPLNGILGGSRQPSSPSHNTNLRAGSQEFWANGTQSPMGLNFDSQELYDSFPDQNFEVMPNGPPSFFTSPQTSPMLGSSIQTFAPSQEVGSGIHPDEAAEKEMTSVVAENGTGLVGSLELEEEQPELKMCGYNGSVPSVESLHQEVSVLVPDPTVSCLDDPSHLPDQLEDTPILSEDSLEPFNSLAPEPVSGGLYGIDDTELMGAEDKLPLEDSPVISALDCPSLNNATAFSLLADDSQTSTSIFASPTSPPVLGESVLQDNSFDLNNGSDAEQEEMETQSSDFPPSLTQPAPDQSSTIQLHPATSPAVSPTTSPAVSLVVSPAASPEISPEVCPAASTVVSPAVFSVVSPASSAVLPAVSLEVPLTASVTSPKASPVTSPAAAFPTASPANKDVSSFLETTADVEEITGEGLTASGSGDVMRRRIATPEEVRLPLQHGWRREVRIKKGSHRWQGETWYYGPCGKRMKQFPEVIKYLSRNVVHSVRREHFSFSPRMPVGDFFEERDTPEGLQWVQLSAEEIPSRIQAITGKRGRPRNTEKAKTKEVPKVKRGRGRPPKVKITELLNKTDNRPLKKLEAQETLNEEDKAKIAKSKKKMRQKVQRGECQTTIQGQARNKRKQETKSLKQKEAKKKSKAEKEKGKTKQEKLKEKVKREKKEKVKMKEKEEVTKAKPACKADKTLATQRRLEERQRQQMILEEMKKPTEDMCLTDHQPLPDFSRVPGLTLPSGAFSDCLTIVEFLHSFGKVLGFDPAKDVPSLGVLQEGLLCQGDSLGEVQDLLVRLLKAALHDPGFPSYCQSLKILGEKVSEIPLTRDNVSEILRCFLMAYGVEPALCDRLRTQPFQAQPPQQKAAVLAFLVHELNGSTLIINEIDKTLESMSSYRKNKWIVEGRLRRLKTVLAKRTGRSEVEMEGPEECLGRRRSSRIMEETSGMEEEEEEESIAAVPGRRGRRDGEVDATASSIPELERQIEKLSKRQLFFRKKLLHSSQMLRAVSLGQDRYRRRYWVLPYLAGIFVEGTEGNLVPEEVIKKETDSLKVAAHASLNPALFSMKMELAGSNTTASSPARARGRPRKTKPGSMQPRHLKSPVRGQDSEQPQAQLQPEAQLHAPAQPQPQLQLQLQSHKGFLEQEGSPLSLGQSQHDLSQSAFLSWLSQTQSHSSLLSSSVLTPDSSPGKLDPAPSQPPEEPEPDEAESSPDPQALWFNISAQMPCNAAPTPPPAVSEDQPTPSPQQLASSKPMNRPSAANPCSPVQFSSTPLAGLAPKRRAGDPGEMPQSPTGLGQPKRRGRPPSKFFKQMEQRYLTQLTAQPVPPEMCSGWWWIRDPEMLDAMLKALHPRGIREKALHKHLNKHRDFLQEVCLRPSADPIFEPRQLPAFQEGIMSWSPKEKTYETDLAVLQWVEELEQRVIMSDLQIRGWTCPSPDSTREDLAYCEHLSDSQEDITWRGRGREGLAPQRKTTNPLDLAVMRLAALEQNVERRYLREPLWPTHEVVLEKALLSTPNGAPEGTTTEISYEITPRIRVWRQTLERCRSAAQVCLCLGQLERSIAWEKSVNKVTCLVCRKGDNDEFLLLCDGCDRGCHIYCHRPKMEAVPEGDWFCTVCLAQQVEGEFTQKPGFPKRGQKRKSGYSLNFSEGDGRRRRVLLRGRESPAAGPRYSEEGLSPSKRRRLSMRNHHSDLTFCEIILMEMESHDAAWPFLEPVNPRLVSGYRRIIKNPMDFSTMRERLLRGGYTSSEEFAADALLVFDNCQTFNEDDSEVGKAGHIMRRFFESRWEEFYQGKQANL

Cc1cc2c(-c3ccco3)cnc(N[C@@H]3CCN(C)C[C@H]3C(=O)NC3CCCCC3)c2[nH]c1=O [GSK789]
Kd [1]: 15.8 µM | chromatographic logD [2]: 3.99 | IC50 (Blood): 0.67 µM | Kd [3]: 25.1 µM | Kd [4]: 20 µM | Kd [5]: 15.8 µM | Kd [6]: 0.00398 µM | Kd [7]: 0.01 µM | IC50 [8]: > 10 µM | IC50 [9]: 10 µM | CLH [10]: 14.88 mL/min/g | CLH [11]: 8.15 mL/min/g | Activity (B cell [12]): Active | Activity (B cell [13]): Active | Activity (B cell [14]): Active | Activity (B cell [15]): Active
